Laboratory results reported in paper PMC4867616, “Imaging of Cerebral Amyloid Angiopathy with Bivalent ^99mTc-Hydroxamamide Complexes” (Scientific Reports, 2016).
“And” between values parts separate entries of the source, which are not always exact repeats. Identical values can stand only once. Values belong to the compound of their own block, whether it stands above or below them.

Experiments:
[1] = Ex vivo biodistribution in normal mice; design: species or system ddY mice; conditions: i.v., mean (SD), 5 animals
Description: To evaluate brain uptake of ^99mTc-Ham complexes, biodistribution experiments of ^99mTc-Ham complexes were performed in normal mice. We selected ^18F-florbetapir as a control and compared the results of ^99mTc-Ham complexes with that of ^18F-florbetapir (Fig. 2). The brain uptake of [^99mTc]SB1A, [^99mTc]SB2A, [^99mTc]BT1B, and [^99mTc]BT2B at 2 min postinjection was 0.37, 0.28, 0.36, and 0.37% injected dose (ID)/g, respectively. The radioactivity in the brains remained low until 60 min postinjection. The results of the biodistribution study are shown in Table S1 in Supplementary information.
A saline solution (100 μL) of ^99mTc-Ham complexes (20 kBq) containing EtOH (10 μL) was injected directly into the tail vein of ddY mice (male, 5 weeks old). The mice were sacrificed at 2, 10, 30, and 60 min postinjection. The organs of interest were removed and weighed, and radioactivity was measured using a γ counter (PerkinElmer). The %ID/g of samples was calculated by comparing the sample counts with the count of the diluted initial dose.
*Corresponding author: M. Ono. Address: 46-29 Yoshida Shimoadachi-cho, Sakyo-ku, Kyoto 606-8501, Japan, Phone: +81-75-753-4608, Fax: +81-75-753-4568, E-mail: ono@pharm.kyoto-u.ac.jp. Ex vivo biodistribution in normal mice. A saline solution (100 μL) of ^99mTc-Ham complexes (20 kBq) containing EtOH (10 μL) was injected directly into the tail vein of ddY mice (male, 5 weeks old). The mice were sacrificed at 2, 10, 30, and 60 min postinjection. The organs of interest were removed and weighed, and radioactivity was measured using a γ counter (Wallac 1470 Wizard; PerkinElmer, Massachusetts, USA). Percentage dose per organ was calculated by comparing the tissue counts to suitably diluted aliquots of the injected material. The %dose/g of samples was calculated by comparing the sample counts with the count of the diluted initial dose.

Aβ = target: Aβ; design: method as in PMID 12801237, PMID 19837759; conditions: order of magnitude only; cited from earlier work
[2] = normal mice, 2 min postinjection, similar experimental conditions; cited from earlier work

Biodistribution of radioactivity, Blood ([1]; 2 min after injection): 18.89 (4.57) % injected dose per gram
Biodistribution of radioactivity, Heart ([1]; 2 min after injection): 9.48 (2.01) % injected dose per gram
Biodistribution of radioactivity, Intestine ([1]; 2 min after injection): 1.94 (0.25) % injected dose per gram
Biodistribution of radioactivity, Kidney ([1]; 2 min after injection): 10.74 (2.03) % injected dose per gram
Biodistribution of radioactivity, Liver ([1]; 2 min after injection): 28.55 (4.86) % injected dose per gram
Biodistribution of radioactivity, Lung ([1]; 2 min after injection): 15.47 (4.14) % injected dose per gram
Biodistribution of radioactivity, Pancreas ([1]; 2 min after injection): 4.12 (0.62) % injected dose per gram
Biodistribution of radioactivity, Spleen ([1]; 2 min after injection): 9.73 (3.34) % injected dose per gram
Biodistribution of radioactivity, Stomach ([1]; 2 min after injection): 1.64 (0.41) % injected dose per organ
Biodistribution of radioactivity, Blood ([1]; 10 min after injection): 9.30 (1.96) % injected dose per gram
Biodistribution of radioactivity, Brain ([1]; 10 min after injection): 0.19 (0.02) % injected dose per gram
Biodistribution of radioactivity, Heart ([1]; 10 min after injection): 6.51 (0.77) % injected dose per gram
Biodistribution of radioactivity, Intestine ([1]; 10 min after injection): 4.27 (0.88) % injected dose per gram
Biodistribution of radioactivity, Kidney ([1]; 10 min after injection): 9.48 (1.28) % injected dose per gram
Biodistribution of radioactivity, Liver ([1]; 10 min after injection): 31.03 (2.29) % injected dose per gram
Biodistribution of radioactivity, Lung ([1]; 10 min after injection): 9.67 (0.88) % injected dose per gram
Biodistribution of radioactivity, Pancreas ([1]; 10 min after injection): 3.09 (0.38) % injected dose per gram
Biodistribution of radioactivity, Spleen ([1]; 10 min after injection): 9.70 (3.03) % injected dose per gram
Biodistribution of radioactivity, Stomach ([1]; 10 min after injection): 4.54 (0.97) % injected dose per organ
Biodistribution of radioactivity, Blood ([1]; 30 min after injection): 6.06 (0.29) % injected dose per gram
Biodistribution of radioactivity, Brain ([1]; 30 min after injection): 0.16 (0.03) % injected dose per gram
Biodistribution of radioactivity, Heart ([1]; 30 min after injection): 2.98 (0.63) % injected dose per gram
Biodistribution of radioactivity, Intestine ([1]; 30 min after injection): 7.06 (1.67) % injected dose per gram
Biodistribution of radioactivity, Kidney ([1]; 30 min after injection): 6.18 (0.84) % injected dose per gram
Biodistribution of radioactivity, Liver ([1]; 30 min after injection): 20.17 (3.18) % injected dose per gram
Biodistribution of radioactivity, Lung ([1]; 30 min after injection): 5.31 (0.67) % injected dose per gram
Biodistribution of radioactivity, Pancreas ([1]; 30 min after injection): 1.74 (0.33) % injected dose per gram
Biodistribution of radioactivity, Spleen ([1]; 30 min after injection): 7.86 (1.11) % injected dose per gram
Biodistribution of radioactivity, Stomach ([1]; 30 min after injection): 10.28 (2.03) % injected dose per organ
Biodistribution of radioactivity, Blood ([1]; 60 min after injection): 2.71 (0.14) % injected dose per gram
Biodistribution of radioactivity, Brain ([1]; 60 min after injection): 0.08 (0.00) % injected dose per gram
Biodistribution of radioactivity, Heart ([1]; 60 min after injection): 4.30 (0.14) % injected dose per gram
Biodistribution of radioactivity, Intestine ([1]; 60 min after injection): 14.34 (2.35) % injected dose per gram
Biodistribution of radioactivity, Kidney ([1]; 60 min after injection): 9.66 (0.18) % injected dose per gram
Biodistribution of radioactivity, Liver ([1]; 60 min after injection): 22.16 (2.20) % injected dose per gram
Biodistribution of radioactivity, Lung ([1]; 60 min after injection): 5.14 (0.29) % injected dose per gram
Biodistribution of radioactivity, Pancreas ([1]; 60 min after injection): 2.67 (0.07) % injected dose per gram
Biodistribution of radioactivity, Spleen ([1]; 60 min after injection): 5.44 (0.49) % injected dose per gram
Biodistribution of radioactivity, Stomach ([1]; 60 min after injection): 6.63 (1.12) % injected dose per organ
Compound: CN(C)c1ccc(/C=C/c2ccc(C3=N[O][99Tc-]4(=[O])([NH]C(c5ccc(N(C)C)cc5)=N[O]4)[NH2+]3)cc2)cc1 (single isomer, unassigned) [[^99mTc]SB1A]
Biodistribution of radioactivity, Brain ([1]; 2 min after injection): 0.37 % injected dose per gram and 0.37 (0.05) % injected dose per gram

Compound: CNc1ccc(/C=C/c2ccc(OCCOCCOCCF)nc2)cc1 [[^18F]florbetapir, reference compound]
Kd (Aβ): nM order
Initial brain uptake [2]: 4.90 %ID/g

Biodistribution of radioactivity, Blood ([1]; 2 min after injection): 18.61 (2.47) % injected dose per gram
Biodistribution of radioactivity, Heart ([1]; 2 min after injection): 5.25 (0.22) % injected dose per gram
Biodistribution of radioactivity, Intestine ([1]; 2 min after injection): 0.90 (0.25) % injected dose per gram
Biodistribution of radioactivity, Kidney ([1]; 2 min after injection): 5.94 (0.73) % injected dose per gram
Biodistribution of radioactivity, Liver ([1]; 2 min after injection): 19.90 (4.06) % injected dose per gram
Biodistribution of radioactivity, Lung ([1]; 2 min after injection): 10.87 (2.06) % injected dose per gram
Biodistribution of radioactivity, Pancreas ([1]; 2 min after injection): 1.80 (0.28) % injected dose per gram
Biodistribution of radioactivity, Spleen ([1]; 2 min after injection): 3.83 (0.84) % injected dose per gram
Biodistribution of radioactivity, Stomach ([1]; 2 min after injection): 1.39 (0.21) % injected dose per organ
Biodistribution of radioactivity, Blood ([1]; 10 min after injection): 9.34 (2.62) % injected dose per gram
Biodistribution of radioactivity, Brain ([1]; 10 min after injection): 0.17 (0.04) % injected dose per gram
Biodistribution of radioactivity, Heart ([1]; 10 min after injection): 3.30 (1.02) % injected dose per gram
Biodistribution of radioactivity, Intestine ([1]; 10 min after injection): 2.00 (0.86) % injected dose per gram
Biodistribution of radioactivity, Kidney ([1]; 10 min after injection): 4.29 (1.25) % injected dose per gram
Biodistribution of radioactivity, Liver ([1]; 10 min after injection): 25.64 (6.77) % injected dose per gram
Biodistribution of radioactivity, Lung ([1]; 10 min after injection): 6.50 (1.41) % injected dose per gram
Biodistribution of radioactivity, Pancreas ([1]; 10 min after injection): 1.58 (0.55) % injected dose per gram
Biodistribution of radioactivity, Spleen ([1]; 10 min after injection): 3.00 (0.82) % injected dose per gram
Biodistribution of radioactivity, Stomach ([1]; 10 min after injection): 3.76 (0.82) % injected dose per organ
Biodistribution of radioactivity, Blood ([1]; 30 min after injection): 5.84 (0.65) % injected dose per gram
Biodistribution of radioactivity, Brain ([1]; 30 min after injection): 0.11 (0.02) % injected dose per gram
Biodistribution of radioactivity, Heart ([1]; 30 min after injection): 2.72 (0.28) % injected dose per gram
Biodistribution of radioactivity, Intestine ([1]; 30 min after injection): 6.81 (2.03) % injected dose per gram
Biodistribution of radioactivity, Kidney ([1]; 30 min after injection): 5.24 (0.59) % injected dose per gram
Biodistribution of radioactivity, Liver ([1]; 30 min after injection): 27.06 (2.49) % injected dose per gram
Biodistribution of radioactivity, Lung ([1]; 30 min after injection): 5.00 (0.34) % injected dose per gram
Biodistribution of radioactivity, Pancreas ([1]; 30 min after injection): 1.72 (0.11) % injected dose per gram
Biodistribution of radioactivity, Spleen ([1]; 30 min after injection): 3.11 (0.48) % injected dose per gram
Biodistribution of radioactivity, Stomach ([1]; 30 min after injection): 8.24 (1.41) % injected dose per organ
Biodistribution of radioactivity, Blood ([1]; 60 min after injection): 3.51 (0.34) % injected dose per gram
Biodistribution of radioactivity, Brain ([1]; 60 min after injection): 0.08 (0.02) % injected dose per gram
Biodistribution of radioactivity, Heart ([1]; 60 min after injection): 1.64 (0.32) % injected dose per gram
Biodistribution of radioactivity, Intestine ([1]; 60 min after injection): 9.95 (2.65) % injected dose per gram
Biodistribution of radioactivity, Kidney ([1]; 60 min after injection): 3.20 (0.45) % injected dose per gram
Biodistribution of radioactivity, Liver ([1]; 60 min after injection): 19.04 (3.61) % injected dose per gram
Biodistribution of radioactivity, Lung ([1]; 60 min after injection): 2.78 (0.54) % injected dose per gram
Biodistribution of radioactivity, Pancreas ([1]; 60 min after injection): 1.11 (0.18) % injected dose per gram
Biodistribution of radioactivity, Spleen ([1]; 60 min after injection): 1.36 (0.54) % injected dose per gram
Biodistribution of radioactivity, Stomach ([1]; 60 min after injection): 6.47 (0.85) % injected dose per organ
Compound: CN(C)c1ccc(C2=N[O][99Tc-]3(=[O])([NH]2)[NH2+]C(c2ccc4nc(-c5ccc(N(C)C)cc5)sc4c2)=N[O]3)cc1 [[^99mTc]BT1B]
Biodistribution of radioactivity, Brain ([1]; 2 min after injection): 0.36 % injected dose per gram and 0.36 (0.03) % injected dose per gram

Compound: Thioflavin-S
Kd (Aβ): μM order
